Experiment [1] has as its target T1, isolated kinase domain of the human FLT3 receptor (a.a. 571-993) (Homo sapiens, UniProt P36888).
T1 construct: human FLT3 receptor (a.a. 571-993)
T1 sequence (P36888 571-993): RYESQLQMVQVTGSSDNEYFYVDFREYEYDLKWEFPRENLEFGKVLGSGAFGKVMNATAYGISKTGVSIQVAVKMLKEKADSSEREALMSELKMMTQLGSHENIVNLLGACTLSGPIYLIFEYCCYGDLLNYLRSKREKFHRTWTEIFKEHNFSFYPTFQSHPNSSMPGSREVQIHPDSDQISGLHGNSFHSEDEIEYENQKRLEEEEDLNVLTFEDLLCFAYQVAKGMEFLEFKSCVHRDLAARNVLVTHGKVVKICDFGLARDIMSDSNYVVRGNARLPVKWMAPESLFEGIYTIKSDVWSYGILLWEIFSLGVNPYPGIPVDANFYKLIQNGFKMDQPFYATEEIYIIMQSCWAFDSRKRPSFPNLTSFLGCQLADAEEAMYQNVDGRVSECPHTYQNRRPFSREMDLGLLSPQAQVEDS
Description: FLT3 fluorescence polarization kinase assay. Format: biochemical. As to conditions: 150 uM ATP; uncertainty ±10%. On the technique in general: In fluorescence polarisation assays a small probe gives low polarisation when free and higher when bound to something large.

The subject of experiment [2] is MV4-11 cells. Description: Inhibition of MV4-11 cell proliferation (CellTiterGlo, 72 h). Format: cell-based. As to conditions: Homo sapiens; 72 h growth inhibition; uncertainty ±20%.

pIC50: −log10 of the molar value.

As to `O=C(Nc1ccc(N2CCOCC2)cc1)N1CCC(c2ncnc3cc(N4CC[C@H](O)C4)ccc23)CC1` [Example 128, 4-[7-(3-Hydroxy-pyrrolidin-1-yl)-quinazolin-4-yl]-piperidine-1-carboxylic acid (4-morpholin-4-yl-phenyl)-amide], the pIC50 (as a rule, the IC50 on a negative log10 scale, so that one unit is a factor of ten) in experiment [1] was 7.60; in experiment [2], 7.80.

Take `CCN1CCN(c2ccc3c(C4CCN(C(=O)Nc5ccc(N6CCCC6)cc5)CC4)ncnc3c2)CC1` [Compound 187, 4-[7-(4-Ethyl-piperazin-1-yl)-quinazolin-4-yl]-piperidine-1-carboxylic acid (4-pyrrolidin-1-yl-phenyl)-amide]: the values for the pIC50 in experiment [1] and in experiment [2] were 6.84 and 7.68, respectively.

Consider `CS(=O)(=O)N1CCN(c2ccc3c(C4CCN(C(=O)Nc5ccc(N6CCCC6)cc5)CC4)ncnc3c2)CC1` [Example 167, 4-[7-(4-Methanesulfonyl-piperazin-1-yl)-quinazolin-4-yl]-piperidine-1-carboxylic acid (4-pyrrolidin-1-yl-phenyl)-amide], for which the pIC50 was 7.36 in experiment [1] and 7.68 in experiment [2].

Consider `CN(C)[C@@H]1CCN(c2ccc3c(C4CCN(C(=O)Nc5ccc(N6CCOCC6)cc5)CC4)ncnc3c2)C1` [Example 150, (R)-4-[7-(3-Dimethylamino-pyrrolidin-1-yl)-quinazolin-4-yl]-piperidine-1-carboxylic acid (4-morpholin-4-yl-phenyl)-amide], for which the pIC50 in experiment [1] was 7.85; in experiment [2] it was 6.57.

On to `O=C(Nc1ccc(N2CCCC2)cc1)N1CCC(c2ncnc3cc(O[C@@H]4CCOC4)ccc23)CC1` [Compound 191, (R)-4-[7-(Tetrahydro-furan-3-yloxy)-quinazolin-4-yl]-piperidine-1-carboxylic acid (4-pyrrolidin-1-yl-phenyl)-amide], for which the figures for the pIC50 in experiment [1] and in experiment [2] were 6.67 and 7.15, respectively.

Turning to `O=C(Nc1ccc(N2CCCC2)cc1)N1CCC(c2ncnc3cc(N4CCN(c5ccncc5)CC4)ccc23)CC1` [Compound 194, 4-[7-(4-Pyridin-4-yl-piperazin-1-yl)-quinazolin-4-yl]-piperidine-1-carboxylic acid (4-pyrrolidin-1-yl-phenyl)-amide], the pIC50 in experiment [1] is 7.70; in experiment [2], 9.40.

Regarding `O=C(Nc1ccc(N2CCCC2)cc1)N1CCC(c2ncnc3cc(OCCN4CCOC4=O)ccc23)CC1` [Example 147, 4-{7-[2-(2-Oxo-oxazolidin-3-yl)-ethoxy]-quinazolin-4-yl}-piperidine-1-carboxylic acid (4-pyrrolidin-1-yl-phenyl)-amide], the figures for the pIC50 in experiment [1] and in experiment [2] were 7.57 and 7.29, respectively.

As to `COCCN1CCN(c2ccc3c(C4CCN(C(=O)Nc5ccc(N6CCCC6)cc5)CC4)ncnc3c2)CC1` [Compound 186, 4-{7-[4-(2-Methoxy-ethyl)-piperazin-1-yl]-quinazolin-4-yl}-piperidine-1-carboxylic acid (4-pyrrolidin-1-yl-phenyl)-amide], the pIC50 in experiment [1] was 7.03; in experiment [2], 7.82.

For `COc1cc2ncnc(C3CCN(C(=O)Nc4ccc(N5CCCCC5)cc4)CC3)c2cc1OC` [Example 19, 4-(6,7-Dimethoxy-quinazolin-4-yl)-piperidine-1-carboxylic acid (4-piperidin-1-yl-phenyl)-amide], the pIC50 in experiment [1] was 7.77; in experiment [2], 8.00.

Consider `COc1cc2ncnc(C3CCN(C(=O)Nc4ccc(CO)cc4)CC3)c2cc1OC` [Example 22, 4-(6,7-Dimethoxy-quinazolin-4-yl)-piperidine-1-carboxylic acid (4-hydroxymethyl-phenyl)-amide], for which the pIC50 in experiment [1] was 5.36; in experiment [2], less than 5.00.

As for `CN(C)CC(=O)N1CCN(c2ccc3c(C4CCN(C(=O)Nc5ccc(N6CCOCC6)cc5)CC4)ncnc3c2)CC1` [Example 144, 4-{7-[4-(2-Dimethylamino-acetyl)-piperazin-1-yl]-quinazolin-4-yl}-piperidine-1-carboxylic acid (4-morpholin-4-yl-phenyl)-amide], the pIC50 in experiment [1] was 7.89; in experiment [2], 6.93.

The values are drawn from patent US20070004660A1, “Synergistic Modulation of Flt3 Kinase Using Alkylquinolines and Alkylquinazolines” (priority 2005, published 2007).
